Data as given in patent US8063220B2, “Sulfonyl-quinoline derivatives” (Richter Gedeon Nyrt., priority 2007, dated 2011).

How the values were obtained:
rat mGluR1 = target: T1, rat mGluR1 (Rattus norvegicus, UniProt P23385); experiment: MGluR1 receptor binding test ([3H]R214127 displacement, rat cerebellar membrane preparation); settings: rat mGluR1, [3H]R214127 3 nM; read-out: mGlu1 Ki
T1 construct: rat cerebellar membrane preparation was used; from tissue; host or cells: rat cerebellum (membrane preparation)
Description: MGluR1 receptor binding tests were performed according to modified method of Lavreysen et al. (Mol. Pharm., 2003, 63, 1082). Based on the high homology between the human and rat mGluR1 receptors, rat cerebellar membrane preparation was used to determine the binding characteristics of reference compounds and novel compounds to the rat mGluR1. [3H]R214127 (3 nM) was used as radioligand and the nonspecific binding was determined in the presence of 1 μM of R214127.
IC-50 values were determined from displacement curves by nonlinear regression analysis and were converted to Ki values using the equation method of Cheng and Prusoff (Biochem. Pharmacol., 1973, 22, 3099).

rat mGluR5 = target: T2, rat mGluR5 (Rattus norvegicus, UniProt P31424); experiment: MGluR5 receptor binding test ([3H]-M-MPEP displacement, rat cerebro-cortical membrane preparation); settings: rat mGluR5, [3H]-M-MPEP 2 nM; read-out: mGlu5 Ki
T2 construct: Rat cerebro-cortical membrane preparation was used; from tissue; host or cells: rat cerebral cortex (membrane preparation)
Description: Rat cerebro-cortical membrane preparation was used to determine the binding characteristics of reference compounds and novel compounds to the rat mGluR5. The A18 cell line expressing hmGluR5a (purchased from Euroscreen) was used to determine binding characteristics of the chemical compounds to the human mGluR5a receptor. [3H]-M-MPEP (2 nM) was used as radioligand. The nonspecific binding was determined in the presence of 10 μM M-MPEP.

T2 sequence (P31424 21-1203): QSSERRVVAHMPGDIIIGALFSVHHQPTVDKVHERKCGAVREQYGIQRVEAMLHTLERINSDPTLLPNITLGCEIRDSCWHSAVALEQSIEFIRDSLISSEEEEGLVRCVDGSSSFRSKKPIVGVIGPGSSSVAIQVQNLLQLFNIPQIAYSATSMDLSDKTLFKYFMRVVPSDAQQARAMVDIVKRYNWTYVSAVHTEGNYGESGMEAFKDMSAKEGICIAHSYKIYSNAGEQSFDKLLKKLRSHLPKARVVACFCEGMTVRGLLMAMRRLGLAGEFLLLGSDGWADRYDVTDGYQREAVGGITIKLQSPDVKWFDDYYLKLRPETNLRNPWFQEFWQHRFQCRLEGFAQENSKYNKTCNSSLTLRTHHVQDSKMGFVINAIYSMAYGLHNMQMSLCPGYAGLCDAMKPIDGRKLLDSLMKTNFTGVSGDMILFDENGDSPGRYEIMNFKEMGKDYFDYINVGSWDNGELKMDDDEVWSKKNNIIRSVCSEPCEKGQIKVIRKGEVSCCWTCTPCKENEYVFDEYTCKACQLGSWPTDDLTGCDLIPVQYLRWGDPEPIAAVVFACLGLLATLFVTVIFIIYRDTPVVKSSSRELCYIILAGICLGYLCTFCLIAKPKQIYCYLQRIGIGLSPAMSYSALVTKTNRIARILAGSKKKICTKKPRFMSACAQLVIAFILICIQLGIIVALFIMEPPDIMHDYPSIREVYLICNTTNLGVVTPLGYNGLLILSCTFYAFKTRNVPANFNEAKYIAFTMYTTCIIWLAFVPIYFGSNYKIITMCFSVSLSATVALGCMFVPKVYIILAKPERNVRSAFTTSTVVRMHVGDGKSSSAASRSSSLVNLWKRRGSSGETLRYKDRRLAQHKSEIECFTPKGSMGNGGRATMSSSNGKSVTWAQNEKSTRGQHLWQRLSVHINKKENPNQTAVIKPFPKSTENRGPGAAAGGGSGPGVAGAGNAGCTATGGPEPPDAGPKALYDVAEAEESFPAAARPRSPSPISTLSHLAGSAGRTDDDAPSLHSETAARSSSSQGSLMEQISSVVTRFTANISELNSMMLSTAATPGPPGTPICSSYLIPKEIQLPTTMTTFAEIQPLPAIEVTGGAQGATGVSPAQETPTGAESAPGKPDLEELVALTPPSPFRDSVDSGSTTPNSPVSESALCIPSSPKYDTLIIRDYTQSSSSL
T1 sequence (P23385 19-1199): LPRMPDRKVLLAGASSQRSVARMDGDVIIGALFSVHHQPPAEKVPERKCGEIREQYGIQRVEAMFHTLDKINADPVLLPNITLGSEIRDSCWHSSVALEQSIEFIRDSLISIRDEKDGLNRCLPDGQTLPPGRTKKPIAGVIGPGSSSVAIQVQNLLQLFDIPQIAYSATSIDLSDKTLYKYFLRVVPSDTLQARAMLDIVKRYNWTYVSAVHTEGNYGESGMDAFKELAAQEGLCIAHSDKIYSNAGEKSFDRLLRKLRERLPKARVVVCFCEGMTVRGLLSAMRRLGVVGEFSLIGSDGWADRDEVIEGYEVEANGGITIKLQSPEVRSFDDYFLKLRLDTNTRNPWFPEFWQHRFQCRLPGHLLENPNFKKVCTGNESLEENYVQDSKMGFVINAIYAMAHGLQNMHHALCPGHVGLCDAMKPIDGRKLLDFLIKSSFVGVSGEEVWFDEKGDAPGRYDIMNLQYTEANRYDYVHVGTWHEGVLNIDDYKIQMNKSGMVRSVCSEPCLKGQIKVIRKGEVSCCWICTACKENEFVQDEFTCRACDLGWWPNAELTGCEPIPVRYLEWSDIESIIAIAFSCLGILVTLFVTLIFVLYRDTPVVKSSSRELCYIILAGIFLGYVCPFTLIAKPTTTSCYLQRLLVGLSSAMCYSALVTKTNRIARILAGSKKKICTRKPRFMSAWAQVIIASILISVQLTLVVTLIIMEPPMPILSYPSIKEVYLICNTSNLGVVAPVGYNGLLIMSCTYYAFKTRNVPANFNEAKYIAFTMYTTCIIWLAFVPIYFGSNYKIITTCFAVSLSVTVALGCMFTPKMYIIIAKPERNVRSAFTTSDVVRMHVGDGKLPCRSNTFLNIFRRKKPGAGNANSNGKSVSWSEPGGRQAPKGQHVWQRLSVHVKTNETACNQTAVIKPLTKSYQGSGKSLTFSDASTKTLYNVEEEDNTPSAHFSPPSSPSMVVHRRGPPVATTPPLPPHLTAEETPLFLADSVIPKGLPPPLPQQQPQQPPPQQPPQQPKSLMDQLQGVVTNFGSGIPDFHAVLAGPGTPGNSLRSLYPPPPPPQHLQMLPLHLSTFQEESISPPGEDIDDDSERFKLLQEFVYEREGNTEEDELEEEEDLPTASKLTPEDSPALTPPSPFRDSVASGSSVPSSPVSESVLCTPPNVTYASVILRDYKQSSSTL

SMILES	Ki (rat mGluR1) [nM]	Ki (rat mGluR5) [nM]
N#Cc1cccc(S(=O)(=O)c2cnc3cc(C#N)ccc3c2-c2ccc(Cl)cc2)c1 [Compound 191]	> 500	200 to 500
COc1cccc(-c2c(S(=O)(=O)c3cccc(F)c3)cnc3c(F)cccc23)c1 [Compound 62]	> 500	< 200
COc1cccc(-c2c(S(=O)(=O)c3cc(F)cc(F)c3)cnc3ccc(F)cc23)c1 [Compound 134]	> 500	200 to 500
O=S(=O)(c1ccc(F)c(Cl)c1)c1cnc2c(F)cccc2c1-c1cccc(F)c1 [Compound 210]	200 to 500	< 200
Cc1ccc(S(=O)(=O)c2cnc3ccc(F)cc3c2-c2ccc(F)cc2)cc1Cl [Compound 142]	> 500	< 200
COc1ccc(-c2c(S(=O)(=O)c3ccc(C)c(C)c3)cnc3cc(F)ccc23)cc1 [Compound 77]	> 500	< 200
O=S(=O)(c1cccc(F)c1)c1cnc2c(F)cccc2c1-c1cccc(Cl)c1 [Compound 58]	200 to 500	< 200
COc1cccc(-c2c(S(=O)(=O)c3cc(F)cc(F)c3)cnc3cc(F)ccc23)c1 [Compound 90]	> 500	< 200
O=S(=O)(c1ccc(F)c(Cl)c1)c1cnc2cc(F)ccc2c1-c1cccc(Cl)c1 [Compound 258]	200 to 500	< 200
Cc1ccc(S(=O)(=O)c2cnc3cc(F)ccc3c2-c2ccc(F)cc2)cc1C [Compound 46]	> 500	< 200
N#Cc1ccc2c(-c3ccccc3F)c(S(=O)(=O)c3cc(F)cc(F)c3)cnc2c1 [Compound 199]	> 500	200 to 500
Cc1ccc(S(=O)(=O)c2cnc3ccc(F)cc3c2-c2cccc(F)c2)cc1F [Compound 128]	> 500	< 200
COc1ccc(-c2c(S(=O)(=O)c3ccc(F)c(F)c3)cnc3c(F)cccc23)cc1 [Compound 122]	> 500	< 200
COc1ccc(S(=O)(=O)c2cnc3ccc(F)cc3c2-c2ccc(Cl)cc2)cc1 [Compound 29]	> 500	< 200
COc1cccc(S(=O)(=O)c2cnc3cc(F)ccc3c2-c2cccc(Cl)c2)c1 [Compound 43]	> 500	< 200
O=S(=O)(c1cc(Cl)cc(Cl)c1)c1cnc2cc(F)ccc2c1-c1cccc(Cl)c1 [Compound 156]	200 to 500	< 200
COc1ccc(-c2c(S(=O)(=O)c3ccc(F)c(Cl)c3)cnc3cc(F)ccc23)cc1 [Compound 104]	200 to 500	< 200
O=S(=O)(c1ccc(F)c(Cl)c1)c1cnc2c(F)cccc2c1-c1ccc(Cl)cc1 [Compound 208]	200 to 500	< 200
COc1ccc(-c2c(S(=O)(=O)c3ccc(OC)c(Cl)c3)cnc3ccc(F)cc23)cc1 [Compound 74]	> 500	< 200
O=S(=O)(c1cccc(F)c1)c1cnc2cc(F)ccc2c1-c1ccc(Cl)cc1 [Compound 41]	> 500	< 200
O=S(=O)(c1cccc(F)c1)c1cnc2cc(Cl)ccc2c1-c1cccc(F)c1 [Compound 168]	> 500	< 200
N#Cc1cc(F)cc(S(=O)(=O)c2cnc3c(N)cccc3c2-c2ccc(F)cc2)c1 [Compound 278]	> 500	< 200
Nc1ccc2c(-c3cccc(F)c3)c(S(=O)(=O)c3ccc(F)c(F)c3)cnc2c1 [Compound 264, 7-Amino-3-(3,4-difluoro-benzenesulfonyl)-4-(3-fluoro-phenyl)-quinoline]	200 to 500	< 200
N#Cc1cc(F)cc(S(=O)(=O)c2cnc3cc(Cl)ccc3c2-c2ccc(F)cc2)c1 [Compound 186, 7-chloro-3-(3-cyano-5-fluoro-benzenesulfonyl)-4-(4-fluoro-phenyl)-quinoline]	> 500	< 200
Cc1ccc(S(=O)(=O)c2cnc3cc(F)ccc3c2-c2ccc(Cl)cc2)cc1C [Compound 45]	> 500	< 200
